1 substance from patent US20180333461A1, “METHODS AND COMPOSITIONS FOR TREATING OR PREVENTING FLAVIVIRUS INFECTIONS” (THE UNIVERSITY OF QUEENSLAND, priority 2014, published 2018) can be followed below.

One assay concerns human PBMC. Nature of the assay: IL-6 secretion by human PBMC (ELISA), with or without polymyxin B pre-incubation. The note with it: 24 hours. Type of assay: cell-based. The method, then: FIG. 1 is a graphical representation showing that Dengue NS1 activates human and mouse innate immune responses. (A) NS1 induces IL-6 secretion by human PBMC. Cells were treated for 24 hrs. with LPS (100 ng/mL), NS1 (40 μg/mL), or an analogous NS1 sample immune-depleted with anti-NS1 or anti-E antibody. IL-6 was measured by ELISA. Data shown is mean±SD of three donors. The inset immunoblot is of the supernatant fraction following immuno-depletion using anti-NS1 antibody or isotype-matched control antibody. […] ELAM promoter activity was monitored as in B, in response to LPS (100 ng/mL), NS1 (40 μg/mL), NS1 immuno-depleted using anti-NS1 antibody or isotype-matched control antibody (confirmed in western blot inset).
NS1 and LPS were pre-incubated for 30 minutes with or without polymyxin B, then added to PBMC and incubated for 24 hours. […] Released IL-6 was measured by ELISA. […] After 1 hour of treatment, CSF1R levels were determined by flow cytometry, and the % of cells with high levels of receptor are shown. […]
Human PBMCs from healthy donors were seeded at 1×10^6 cells per well in 12 well plates prior to incubation with NS1 or LPS. […] The level of IL-6 production was quantitated ELISA (R & D Systems) according to the protocol recommended by the manufacturer.
Background: ELISA stands for enzyme-linked immunosorbent assay.

Assay [1] has as its system bone marrow-derived macrophages (BMM). Nature of the assay: CSF-1R down-modulation assay on BMMs (flow cytometry). Type of assay: cell-based, mouse. The note with it: 1 hour treatment. The protocol:
NS1 and LPS were pre-incubated for 30 minutes with or without polymyxin B, then added to PBMC and incubated for 24 hours. The final concentration of polymyxin B was 25 μg/mL, with varying concentrations of LPS (0.1, 1, 10 ng/mL) and NS1 (5, 10, 20 and 40 μg/mL). Released IL-6 was measured by ELISA. […] NS1 and LPS were pre-incubated for 30 minutes with or without polymyxin B then added to BMMs that had been starved of CSF1 overnight. The final concentration of polymyxin B was 25 μg/mL, with LPS (10-fold dilutions from 100 ng/mL) and NS1 (2′-fold dilutions from 10 μg/mL). After 1 hour of treatment, CSF1R levels were determined by flow cytometry, and the % of cells with high levels of receptor are shown. Data are the mean±SD from three (A) or five (B) independent experiments.
FIG. 3 is a graphical representation showing that NS1 from several sources has immunostimulatory activity. (A) NS1 immuno-depletion prevents the down-modulation of surface CSF1R by S2 cell-expressed NS1. […] The final concentration of 5 μg/mL NS1 (as quantified by capture-ELISA) represents approximately 4-fold higher levels than produced in the CHO cell medium. […]
FIG. 5 is a graphical representation showing that NS1 activates cells via TLR4. […] CSF1R on wild-type C57BL/6 BMM (WT), tlr4^−/− and MyD88^−/−/trif^−/− BMMs was measured after 1 hour treatment with CSF1 (10^4 U/mL), LPS (100 ng/mL) and NS1 (10 μg/mL). […]
Background: Flow cytometry measures light scatter and fluorescence of single cells or particles in a stream.

Entries after “also recorded” stand apart in the source; their conditions may differ.

Turning to polymyxin B, in the assay on human PBMC (polymyxin B 25 μg/mL pre-incubated with LPS 30 min, LPS ≤10 ng/mL), the “Effect on LPS-induced IL-6 in PBMC” value is on record as “inhibited”. The “Effect on NS1-induced IL-6 in PBMC” value in the assay with human PBMC (polymyxin B 25 μg/mL pre-incubated with NS1 (5-40 μg/mL) 30 min) was “does not block; also recorded: unaffected”. In assay [1] (polymyxin B 25 μg/mL pre-incubated with LPS 30 min), the “Effect on LPS-induced loss of surface CSF1R on BMMs” value is “sensitive”. For the same substance, in assay [1] (polymyxin B 25 μg/mL pre-incubated with NS1 30 min), the “Effect on NS1-induced loss of surface CSF1R on BMMs” value was “does not block”.
